ChEMBL document CHEMBL1132815, “16Beta-hydroxy-5alpha-cholestane-3,6-dione, a novel cytotoxic oxysterol from the red alga Jania rubens” (2000)
Converted amounts (≈) assume the structure as drawn.

Key:
KB [1] = assay: Cytotoxicity (dichloromethane extract) was evaluated against KB tumor cell line; type: functional; settings: Homo sapiens, read-out: ID50 (the source's name)
KB [2] = assay: Cytotoxicity (extracted with dichloromethane-methanol) was evaluated against KB tumor cell line; type: functional; settings: Homo sapiens, read-out: ID50 (the source's name)

Which results are given for `CC(C)CCC[C@@H](C)[C@H]1[C@@H](O)C[C@H]2[C@@H]3CC(=O)[C@H]4CC(=O)CC[C@]4(C)[C@H]3CC[C@]12C`?
IC50 (KB [1]): 5 mg/L (≈ 12 µM); IC50 (KB [2]): 0.5 mg/L (≈ 1.2 µM)
